The source of these data is patent publication US8404683B2, “Inhibitors of the interaction between MDM2 and P53” (Janssen Pharmaceutical N.V., priority 2004, dated 2013).

In the assay the test system is U87MG cells. The experiment in a line: Proliferation assay (MTT-based) on U87MG tumour cells. The following applies: Homo sapiens, U-87 MG, 96 h, 4 days of incubation, negative log value of the IC50-value, read-out: cell proliferation pIC50 (converted). On the procedure: U87MG cells are human glioblastoma cells with wild type p53. In this cell line MDM2 tightly controls p53 expression.
Cellular activity of the compounds of formula (I) was determined on U87MG tumour cells using a colorimetric assay for cell toxicity or survival (see example C.2).
All compounds tested were dissolved in DMSO and further dilutions were made in culture medium. Final DMSO concentrations never exceeded 0.1% (v/v) in cell proliferation assays. Controls contained U87MG cells and DMSO without compound and blanks contained DMSO but no cells.
U87MG cells were seeded in 96-well cell culture plates at 3000 cells/well/100 μl. 24 hours later, medium was changed and compound and/or solvent were added to a final volume of 200 μl. Following 4 days of incubation, medium was replaced by 200 μl fresh medium and cell growth was assessed using a MTT-based assay. Therefore, 25 μl of the MTT solution (0.5% MTT research grade from Serva in phosphate-buffered saline) was added to each well and the cells were further incubated for 2 hours at 37° C. The medium was then carefully aspirated and the blue MTT-formazan product was dissolved by adding to each well 25 μl 0.1 M glycin and 100 μl DMSO. The plates were shaken for another 10 min on a micro plate shaker before reading absorbance at 540 nm by a Biorad micro plate reader.
Within an experiment, the results for each experimental condition are the mean of 3 replicate wells. For initial screening purposes, compounds were tested at a single fixed concentration of 10^−5 M. For active compounds, the experiments were repeated to establish full concentration-response curves. For each experiment, controls (containing no drug) and a blank incubation (containing no cells or drugs) were run in parallel. The blank value was subtracted from all control and sample values. For each sample, the mean value for cell growth (in absorbance units) was expressed as a percentage of the mean value for cell growth of the control. When appropriate, IC50-values (concentration of the drug, needed to reduce cell growth to 50% of the control) were computed using probit analysis for graded data (Finney, D. J., Probit Analyses, 2nd Ed. Chapter 10, Graded Responses, Cambridge University Press, Cambridge 1962). Herein the effects of test compounds are expressed as pIC50 (the negative log value of the IC50-value) (see table F-2).

For the compound `CCCc1cc(Nc2ccc(NCCc3c[nH]c4ccccc34)cc2)c2ccccc2n1` [Compound 30], the IC50 was 0.316 µM.

For `O=C(c1cc(Nc2ccc(NCCc3c[nH]c4ccccc34)cc2)ccn1)N1CCCC1` [Compound 49], the IC50 is greater than 10 µM.

Turning to `c1ccc(COCc2cc(Nc3ccc(NCCc4c[nH]c5ccccc45)cc3)ccn2)cc1` [Compound 167], the IC50 was 3.98 µM.

For `O=C(C(Cc1c[nH]c2ccccc12)Nc1ccc(Nc2ccncc2)cc1)N1CCC(CCCO)CC1` (stereo not drawn) [Compound 217], the IC50 was 3.98 µM.

`O=[N+]([O-])c1cccc2c(Nc3ccc(NCCc4c[nH]c5ccccc45)cc3)ccnc12` [Compound 23]: the IC50 was 0.398 µM.

As to `CC(C)(C)OC(=O)N(CCc1cn(C(=O)OC(C)(C)C)c2ccccc12)c1ccc(N(c2ccncc2)c2ccncc2)cc1` [Compound 227], the IC50 was 7.94 µM.

Regarding `CC(NCCCc1ccccc1)c1cc(Nc2ccc(NCCc3c[nH]c4ccccc34)cc2)ccn1` (stereo not drawn) [Compound 148], the IC50 was 3.16 µM.

`CC(NCCN1CCOCC1)c1cc(Nc2ccc(NCCc3c[nH]c4ccccc34)cc2)ccn1` (stereo not drawn) [Compound 144]: the IC50 was 3.16 µM.

As to `Clc1cccc2[nH]cc(CCNc3ccc(Nc4ccncc4)cc3)c12` [Compound 186], the IC50 was 1 µM.

Turning to `COC(=O)CCNCc1cc(Nc2ccc(NCCc3c[nH]c4ccccc34)cc2)ccn1` [Compound 96], the IC50 is greater than 10 µM.

In the case of `COC(=O)c1cc(Nc2ccc(NCCc3c[nH]c4cc(OC)ccc34)cc2)ccn1` [Compound 178], the IC50 is 1.58 µM.

For `CC(C)C(O)c1cc(Nc2ccc(NCCc3c[nH]c4ccccc34)cc2)ccn1` (stereo not drawn) [Compound 137], the IC50 was 3.16 µM.

On to `CCN(CCCCO)C(=O)C(Cc1c[nH]c2ccccc12)Nc1ccc(Nc2ccncc2)cc1` (stereo not drawn) [Compound 212], for which the IC50 is 1.58 µM.

Take `CN(C)Cc1cc(Nc2ccc(NCCc3c[nH]c4ccccc34)cc2)ccn1` [Compound 158]: the IC50 was greater than 10 µM.

For `OC(c1cc(Nc2ccc(NCCc3c[nH]c4ccccc34)cc2)ccn1)C1CC1` (stereo not drawn) [Compound 136], the IC50 is 2 µM.

Consider `OC(c1ccccc1)c1cc(Nc2ccc(NCCc3c[nH]c4ccccc34)cc2)ccn1` (stereo not drawn) [Compound 57], for which the IC50 is 0.794 µM.

For the compound `COC(=O)CCOCc1cc(Nc2ccc(NCCc3c[nH]c4ccccc34)cc2)ccn1` [Compound 172], the IC50 is greater than 10 µM.

As for `CN(CCO)C(=O)C(Cc1c[nH]c2ccccc12)Nc1ccc(Nc2ccncc2)cc1` (stereo not drawn) [Compound 213], the IC50 is greater than 10 µM.

Take `c1ccc(CCCCNCc2cc(Nc3ccc(NCCc4c[nH]c5ccccc45)cc3)ccn2)cc1` [Compound 170]: the IC50 is 3.16 µM.

For the compound `c1ccc(CCNCc2cc(Nc3ccc(NCCc4c[nH]c5ccccc45)cc3)ccn2)cc1` [Compound 163], the IC50 was 3.16 µM.

For the compound `O=C(C(Cc1c[nH]c2ccccc12)Nc1ccc(Nc2ccncc2)cc1)N1CCCCC1CCCO` (stereo not drawn) [Compound 216], the IC50 was 2.51 µM.

Turning to `CC(N)c1cc(Nc2ccc(NCCc3c[nH]c4ccccc34)cc2)ccn1` (stereo not drawn) [Compound 141], the IC50 was 3.98 µM.

Regarding `N#CCNCc1cc(Nc2ccc(NCCc3c[nH]c4ccccc34)cc2)ccn1` [Compound 157], the IC50 is 1.58 µM.

For `CC(C)(O)c1cc(Nc2ccc(NCCc3c[nH]c4ccccc34)cc2)ccn1` [Compound 201], the IC50 is 3.16 µM.

For the compound `O=C(C(Cc1c[nH]c2ccccc12)Nc1ccc(Nc2ccncc2)cc1)N1CCN(CCO)CC1` (stereo not drawn) [Compound 114], the IC50 is greater than 10 µM.

As for `c1cncc(Nc2cccc(NCCc3c[nH]c4ccccc34)c2)c1` [Compound 76], the IC50 is greater than 10 µM.

As for `CCOc1cc(Nc2ccnc3c2CCCC3O)ccc1NCCc1c[nH]c2cc(OC)ccc12` (stereo not drawn) [Compound 197], the IC50 was 0.251 µM.

As for `OCc1cc(Nc2ccc(NCCc3c[nH]c4cc(F)ccc34)cc2)ccn1` [Compound 193], the IC50 was 1 µM.

On to `COc1ccc2[nH]cc(CCNc3ccc(Nc4ccnc5ccccc45)cc3)c2c1` [Compound 32], for which the IC50 was 0.158 µM.

In the case of `COc1cc(NCCc2c[nH]c3ccccc23)ccc1Nc1ccncc1` [Compound 85], the IC50 was 0.158 µM.

With `Clc1ccc2c(CCNc3ccc(Nc4ccncc4)cc3)c[nH]c2c1` [Compound 50], the IC50 is 0.1 µM.

For the compound `CCOc1cc(Nc2ccncc2)ccc1NCCc1c[nH]c2cc(OC)ccc12` [Compound 177], the IC50 was 0.0501 µM.

`COCCOCc1cc(Nc2ccc(NCCc3c[nH]c4ccccc34)cc2)ccn1` [Compound 169]: the IC50 was 0.398 µM.

`O=C(CCc1ccccc1)NCc1cc(Nc2ccc(NCCc3c[nH]c4ccccc34)cc2)ccn1` [Compound 131]: the IC50 is 2.51 µM.

As for `Cn1cc(CCN(c2ccncc2)c2ccc(Nc3ccncc3)cc2)c2ccccc21` [Compound 10], the IC50 is 1.26 µM.

On to `N#CCCNCc1cc(Nc2ccc(NCCc3c[nH]c4ccccc34)cc2)ccn1` [Compound 162], for which the IC50 was 3.16 µM.

Regarding `c1cncc(Nc2ccc(NCCc3c[nH]c4ccccc34)cc2)c1` [Compound 6], the IC50 was 3.16 µM.

Turning to `CCC(O)c1cc(Nc2ccc(NCCc3c[nH]c4ccccc34)cc2)ccn1` (stereo not drawn) [Compound 203], the IC50 is 3.16 µM.

Consider `c1ccc2c(CCNc3ccc(Nc4ccnc(CNCCN5CCNCC5)c4)cc3)c[nH]c2c1` [Compound 95], for which the IC50 is 7.94 µM.

Take `OC1CCc2c(Nc3ccc(NCCc4c[nH]c5ccccc45)cc3)ccnc21` (stereo not drawn) [Compound 110]: the IC50 was 0.01 µM.

Turning to `CN(C)CCN(Cc1ccccc1)C(=O)C(Cc1c[nH]c2ccccc12)Nc1ccc(Nc2ccncc2)cc1` (stereo not drawn) [Compound 211], the IC50 was 0.0631 µM.

Regarding `Cc1cccc2c(CCNc3ccc(Nc4ccncc4)cc3)c[nH]c12` [Compound 187], the IC50 is 0.398 µM.

`OCCCCNCc1cc(Nc2ccc(NCCc3c[nH]c4ccccc34)cc2)ccn1` [Compound 165]: the IC50 is 5.01 µM.

In the case of `NC(=O)C(Cc1c[nH]c2ccccc12)Nc1ccc(Nc2ccnc3ccccc23)cc1` (stereo not drawn) [Compound 18], the IC50 is 0.501 µM.

For the compound `O=C(C(Cc1c[nH]c2ccccc12)Nc1ccc(Nc2ccncc2)cc1)N1CCC(CCO)C1` (stereo not drawn) [Compound 210], the IC50 was greater than 10 µM.

Regarding `Cc1noc(-c2cc(Nc3ccc(NCCc4c[nH]c5ccccc45)cc3)ccn2)n1` [Compound 106], the IC50 was 1.58 µM.

As for `COC(=O)CCNC(C)c1cc(Nc2ccc(NCCc3c[nH]c4ccccc34)cc2)ccn1` (stereo not drawn) [Compound 146], the IC50 was 7.94 µM.

Consider `CCN(CC)Cc1cc(Nc2ccc(NCCc3c[nH]c4ccccc34)cc2)ccn1` [Compound 161], for which the IC50 was 1 µM.

For the compound `O=C(C(Cc1c[nH]c2ccccc12)Nc1ccc(Nc2ccncc2)cc1)N1CCC(CO)CC1` (stereo not drawn) [Compound 224], the IC50 was 3.98 µM.

Take `O=C(NCc1cc(Nc2ccc(NCCc3c[nH]c4ccccc34)cc2)ccn1)C1CC1` [Compound 130]: the IC50 is 1.58 µM.

Turning to `Oc1cccc2c(Nc3ccc(NCCc4c[nH]c5ccccc45)cc3)ccnc12` [Compound 27], the IC50 is 0.0794 µM.

As to `O[C@@H]1CCc2c(Nc3ccc(NCCc4c[nH]c5ccccc45)cc3)ccnc21` [Compound 195], the IC50 is 0.0794 µM.

In the case of `Brc1ccc2c(CCNc3ccc(Nc4ccncc4)cc3)c[nH]c2c1` [Compound 192], the IC50 was greater than 10 µM.

Consider `Clc1cc(Nc2ccc(NCCc3c[nH]c4ccccc34)cc2)ccn1` [Compound 103], for which the IC50 is 3.98 µM.
